Data taken from US20210060484A1, “PROTON COUPLED ELECTROCHEMICAL CO2 CAPTURE SYSTEM” (President and Fellows of Harvard College, priority 2018, published 2021).

Columns and labels:
[1] = solution of zero salinity
[2] = solution of zero salinity; cited from earlier work
[3] = cited from earlier work
[4] = cited from earlier work; remark: listed apart in the source

Compound: O=C(O)O [carbonic acid]
- first pKa [1]: 6.0
- second pKa [1]: 9.4
- K1, first dissociation constant [2]: 1.1 µM
- K2, second dissociation constant [2]: 410 pM

Compound: c1ccc2nccnc2c1 [quinoxaline]
- solubility ([3]; in water and in weakly alkaline aqueous solution): above 4.0 M

Compound: O=C1C=C(S(=O)(=O)O)C=C(S(=O)(=O)O)C1=O [1,2-benzoquinone-3,5-disulfonic acid]
- chemical stability in water [4]: chemical instability in water
- reported solubility ([3]; organic PCET molecules from the redox-flow battery literature): 3000 mM
